Experimental data as given in paper PMC3196276 (2011).

Tests used:
[1] = tested on: U25C (3WJ site mutant) (RNA, riboswitch) GGAGAGUAGAUGAUUCGCGUUAAGCGUGUGUGAAUGGGAUGUCGUCACACAACGAAGCGAGAGCGCGGUGAAUCAUUGCAUCCGCUCCA; assay: ITC; conditions: 6 mM MgCl2, 100 mM NaCl, 10 mM KCl; 10 mM HEPES pH 8.0, 1 mM DTT, 25 °C
[2] = tested on: U7C (PK site mutant) (RNA, riboswitch) GGAGAGCAGAUGAUUCGCGUUAAGUGUGUGUGAAUGGGAUGUCGUCACACAACGAAGCGAGAGCGCGGUGAAUCAUUGCAUCCGCUCCA; assay: ITC; conditions: 6 mM MgCl2, 100 mM NaCl, 10 mM KCl; 10 mM HEPES pH 8.0, 1 mM DTT, 25 °C
[3] = tested on: Smu wild type (wt) THF riboswitch aptamer, crystallization sequence (RNA, riboswitch) GGAGAGUAGAUGAUUCGCGUUAAGUGUGUGUGAAUGGGAUGUCGUCACACAACGAAGCGAGAGCGCGGUGAAUCAUUGCAUCCGCUCCA; conditions: apparent; ligand not given, THF from context

KD [1] [µM]	KD [2] [µM]	KD,app [3] [µM]	SMILES
18 ± 1	23 ± 2	–	Nc1nc2c(c(=O)[nH]1)N(C=O)[C@@H](CNc1ccc(C(=O)N[C@@H](CCC(=O)O)C(=O)O)cc1)CN2
–	–	18 ± 1	Nc1nc2c(c(=O)[nH]1)N[C@@H](CNc1ccc(C(=O)N[C@@H](CCC(=O)O)C(=O)O)cc1)CN2
